Measurements as given in publication PMC6017062, “Probing the Inhibitor versus Chaperone Properties of sp^2-Iminosugars towards Human β-Glucocerebrosidase: A Picomolar Chaperone for Gaucher Disease” (Molecules : A Journal of Synthetic Chemistry and Natural …, 2018).
Read-outs that look alike come from different tables or passages of the source.

What was measured:
Format in all cases: biochemical
isomaltase (α-Glcase2) = biological target: T1, isomaltase (α-Glcase2) (Saccharomyces cerevisiae, UniProt P53051); experiment: Commercial glycosidase inhibition: isomaltase (α-Glcase2)
T1 construct: purchased
Text: (§1) We first evaluated the inhibitory properties of the new nonreducing mono- and bicyclic sp^2-iminosugars 4–15 against a panel of commercial glycosidases that included the α-glucosidases maltase (yeast maltase; α-Glcase1) and isomaltase (α-Glcase2) from Saccharomyces cerevisiae and amyloglucosidase (α-Glcase3) from Aspergillus niger, the β-glucosidases from almonds (β-Glcase1) and bovine liver (β-Glcase2), the α-galactosidase from green coffee beans (α-Galase), the β-galactosidase from Escherichia coli (β-Galase), and the α-mannosidase from Jack bean (α-Manase).
(§2) Inhibition constant (Ki) values were determined by spectrophotometrically measuring the residual hydrolytic activities of the glycosidases against the respective o- (for β-galactosidase from E. coli) or p-nitrophenyl α- or β-D-glycopyranoside (for other glycosidases) in the presence of the iminosugars. Each assay was performed in phosphate buffer or phosphate-citrate buffer (for α- or β-mannosidase and amyloglucosidase) at the optimal pH for the enzymes. The reactions were initiated by addition of the enzyme to a solution of the substrate in the absence or presence of various inhibitor concentrations. The mixture was incubated for 10–30 min at 37 °C or 55 °C (for amyloglucosidase) and the reaction was quenched by addition of 1 M Na2CO3. Reaction times were appropriate to obtain 10–20% conversion of the substrate in order to achieve linear rates. The absorbance of the resulting mixture was determined at 405 nm. Approximate value of Ki was determined from the slope of Dixon plots using a fixed concentration of substrate (around the Km value for the different glycosidases) and various concentrations of inhibitor. Full Ki determinations and enzyme inhibition mode were determined from the slope of Lineweaver–Burk plots and double reciprocal analysis.

[1] = biological target: β-glucosidase from almonds (β-Glcase1); experiment: Commercial glycosidase inhibition: β-glucosidase from almonds (β-Glcase1); settings: mean ± SD, three determinations; competitive; n.i. = no inhibition detected at 1 mM
Text: as §1, §2

[2] = biological target: T2, α-mannosidase from Jack bean (α-Manase) (Canavalia ensiformis, UniProt C0HJB3); experiment: Commercial glycosidase inhibition: α-mannosidase from Jack bean (α-Manase); settings: mean ± SD, three determinations; competitive; n.i. = no inhibition detected at 1 mM
T2 construct: purchased
T2 sequence (C0HJB3 1-981): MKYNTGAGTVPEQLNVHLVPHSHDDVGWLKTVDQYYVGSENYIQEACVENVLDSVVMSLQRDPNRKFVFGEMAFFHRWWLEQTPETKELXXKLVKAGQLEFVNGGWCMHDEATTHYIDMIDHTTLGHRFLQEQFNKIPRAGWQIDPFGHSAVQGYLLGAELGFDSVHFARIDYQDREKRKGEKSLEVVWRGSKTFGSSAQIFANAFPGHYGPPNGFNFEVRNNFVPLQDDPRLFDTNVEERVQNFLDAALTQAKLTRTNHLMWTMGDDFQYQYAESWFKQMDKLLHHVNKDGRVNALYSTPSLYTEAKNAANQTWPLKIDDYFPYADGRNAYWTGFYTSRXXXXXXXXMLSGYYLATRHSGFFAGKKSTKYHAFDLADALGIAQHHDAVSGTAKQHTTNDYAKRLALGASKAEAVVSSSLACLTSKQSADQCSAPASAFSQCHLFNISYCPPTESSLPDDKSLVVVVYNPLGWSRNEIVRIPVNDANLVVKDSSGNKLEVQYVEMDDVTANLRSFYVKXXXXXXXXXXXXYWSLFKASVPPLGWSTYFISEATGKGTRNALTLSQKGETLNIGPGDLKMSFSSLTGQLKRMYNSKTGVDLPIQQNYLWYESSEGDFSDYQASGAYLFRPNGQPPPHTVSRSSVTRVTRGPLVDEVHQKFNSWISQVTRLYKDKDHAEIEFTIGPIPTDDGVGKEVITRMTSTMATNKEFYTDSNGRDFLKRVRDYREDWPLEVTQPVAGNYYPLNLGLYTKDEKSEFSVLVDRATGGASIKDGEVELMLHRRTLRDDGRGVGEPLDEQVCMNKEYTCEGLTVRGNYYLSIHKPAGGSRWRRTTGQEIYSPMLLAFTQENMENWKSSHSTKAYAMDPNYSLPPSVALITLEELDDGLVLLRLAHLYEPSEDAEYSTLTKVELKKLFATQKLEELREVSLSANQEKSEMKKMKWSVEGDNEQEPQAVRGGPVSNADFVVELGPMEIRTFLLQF
Text: as §1, §2

[3] = biological target: T3, β-galactosidase (β-Galase) (Escherichia coli, UniProt P00722); experiment: Commercial glycosidase inhibition: β-galactosidase from E. coli (β-Galase); settings: mean ± SD, three determinations; competitive; n.i. = no inhibition detected at 1 mM
T3 construct: purchased
Text: as §1, §2

[4] = biological target: T4, α-galactosidase from green coffee beans (α-Galase) (Coffea arabica, UniProt Q42656); experiment: Commercial glycosidase inhibition: α-galactosidase from green coffee beans (α-Galase); settings: mean ± SD, three determinations; competitive; n.i. = no inhibition detected at 1 mM
T4 construct: purchased
Text: as §1, §2

[5] = biological target: T5, amyloglucosidase (α-Glcase3) (Aspergillus niger, UniProt P69328); experiment: Commercial glycosidase inhibition: amyloglucosidase (α-Glcase3); settings: mean ± SD, three determinations; competitive; n.i. = no inhibition detected at 1 mM
T5 construct: purchased
Text: as §1, §2

[6] = biological target: T6, α-glucosidase maltase (yeast maltase; α-Glcase1) (Saccharomyces cerevisiae, UniProt P53341); experiment: Commercial glycosidase inhibition: maltase (yeast maltase; α-Glcase1); settings: three determinations, competitive, n.i. = no inhibition detected at 1 mM
T6 construct: purchased
Text: as §1, §2

[7] = Dixon or Lineweaver-Burk plot, read-out: Ki against isomaltase (supplement figure legends)
[8] = mean ± SD, three determinations, competitive, n.i. = no inhibition detected at 1 mM, read-out: Ki α-Glcase2
[9] = mean ± SD, three determinations, competitive, n.i. = no inhibition detected at 1 mM

T5 sequence (P69328 25-640): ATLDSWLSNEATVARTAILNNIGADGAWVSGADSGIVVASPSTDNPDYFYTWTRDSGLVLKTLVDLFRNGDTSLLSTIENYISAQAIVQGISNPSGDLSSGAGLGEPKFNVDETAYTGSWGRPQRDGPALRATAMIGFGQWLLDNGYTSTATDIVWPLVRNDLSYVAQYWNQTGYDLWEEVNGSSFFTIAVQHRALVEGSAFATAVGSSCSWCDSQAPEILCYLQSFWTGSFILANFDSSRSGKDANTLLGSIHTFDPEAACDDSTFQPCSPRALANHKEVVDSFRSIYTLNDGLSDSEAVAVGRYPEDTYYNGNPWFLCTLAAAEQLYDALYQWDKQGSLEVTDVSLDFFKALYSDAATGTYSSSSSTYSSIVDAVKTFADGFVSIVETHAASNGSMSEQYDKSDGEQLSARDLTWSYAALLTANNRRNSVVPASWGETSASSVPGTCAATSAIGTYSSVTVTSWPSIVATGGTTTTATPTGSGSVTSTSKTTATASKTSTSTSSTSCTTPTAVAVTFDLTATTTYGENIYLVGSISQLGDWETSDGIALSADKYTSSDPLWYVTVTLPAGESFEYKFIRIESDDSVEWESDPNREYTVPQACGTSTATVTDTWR
T1 sequence (P53051 whole entry): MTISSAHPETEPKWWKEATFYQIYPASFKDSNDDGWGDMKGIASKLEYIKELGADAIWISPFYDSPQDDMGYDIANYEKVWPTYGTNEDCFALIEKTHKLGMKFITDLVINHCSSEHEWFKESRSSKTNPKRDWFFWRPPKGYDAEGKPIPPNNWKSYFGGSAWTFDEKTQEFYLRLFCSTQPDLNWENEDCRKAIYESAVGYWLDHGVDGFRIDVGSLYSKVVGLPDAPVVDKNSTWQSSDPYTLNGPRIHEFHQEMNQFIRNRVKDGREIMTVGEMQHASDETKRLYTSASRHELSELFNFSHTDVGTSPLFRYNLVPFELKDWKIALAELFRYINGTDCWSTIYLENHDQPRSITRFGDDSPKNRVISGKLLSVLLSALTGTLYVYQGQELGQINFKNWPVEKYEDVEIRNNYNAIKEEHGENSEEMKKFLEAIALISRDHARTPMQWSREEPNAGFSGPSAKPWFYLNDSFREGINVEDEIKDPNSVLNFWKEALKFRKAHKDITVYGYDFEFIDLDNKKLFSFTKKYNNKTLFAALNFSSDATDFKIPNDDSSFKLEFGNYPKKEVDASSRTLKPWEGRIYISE
T6 sequence (P53341 whole entry): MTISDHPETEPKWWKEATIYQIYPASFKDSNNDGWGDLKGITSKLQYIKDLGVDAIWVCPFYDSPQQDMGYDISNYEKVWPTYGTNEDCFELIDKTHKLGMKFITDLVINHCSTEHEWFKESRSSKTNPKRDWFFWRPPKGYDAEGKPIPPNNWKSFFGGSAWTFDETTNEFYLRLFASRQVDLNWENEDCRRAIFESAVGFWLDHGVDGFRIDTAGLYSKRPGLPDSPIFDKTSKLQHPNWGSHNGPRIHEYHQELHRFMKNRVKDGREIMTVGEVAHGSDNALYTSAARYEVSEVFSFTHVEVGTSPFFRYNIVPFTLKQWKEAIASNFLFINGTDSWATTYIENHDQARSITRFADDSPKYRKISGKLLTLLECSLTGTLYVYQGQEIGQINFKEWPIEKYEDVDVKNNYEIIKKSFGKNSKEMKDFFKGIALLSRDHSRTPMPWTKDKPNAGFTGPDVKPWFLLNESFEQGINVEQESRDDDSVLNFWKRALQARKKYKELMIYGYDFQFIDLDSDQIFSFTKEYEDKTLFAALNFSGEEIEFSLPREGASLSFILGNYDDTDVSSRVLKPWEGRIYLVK
T3 sequence (P00722 2-1024 limits assumed): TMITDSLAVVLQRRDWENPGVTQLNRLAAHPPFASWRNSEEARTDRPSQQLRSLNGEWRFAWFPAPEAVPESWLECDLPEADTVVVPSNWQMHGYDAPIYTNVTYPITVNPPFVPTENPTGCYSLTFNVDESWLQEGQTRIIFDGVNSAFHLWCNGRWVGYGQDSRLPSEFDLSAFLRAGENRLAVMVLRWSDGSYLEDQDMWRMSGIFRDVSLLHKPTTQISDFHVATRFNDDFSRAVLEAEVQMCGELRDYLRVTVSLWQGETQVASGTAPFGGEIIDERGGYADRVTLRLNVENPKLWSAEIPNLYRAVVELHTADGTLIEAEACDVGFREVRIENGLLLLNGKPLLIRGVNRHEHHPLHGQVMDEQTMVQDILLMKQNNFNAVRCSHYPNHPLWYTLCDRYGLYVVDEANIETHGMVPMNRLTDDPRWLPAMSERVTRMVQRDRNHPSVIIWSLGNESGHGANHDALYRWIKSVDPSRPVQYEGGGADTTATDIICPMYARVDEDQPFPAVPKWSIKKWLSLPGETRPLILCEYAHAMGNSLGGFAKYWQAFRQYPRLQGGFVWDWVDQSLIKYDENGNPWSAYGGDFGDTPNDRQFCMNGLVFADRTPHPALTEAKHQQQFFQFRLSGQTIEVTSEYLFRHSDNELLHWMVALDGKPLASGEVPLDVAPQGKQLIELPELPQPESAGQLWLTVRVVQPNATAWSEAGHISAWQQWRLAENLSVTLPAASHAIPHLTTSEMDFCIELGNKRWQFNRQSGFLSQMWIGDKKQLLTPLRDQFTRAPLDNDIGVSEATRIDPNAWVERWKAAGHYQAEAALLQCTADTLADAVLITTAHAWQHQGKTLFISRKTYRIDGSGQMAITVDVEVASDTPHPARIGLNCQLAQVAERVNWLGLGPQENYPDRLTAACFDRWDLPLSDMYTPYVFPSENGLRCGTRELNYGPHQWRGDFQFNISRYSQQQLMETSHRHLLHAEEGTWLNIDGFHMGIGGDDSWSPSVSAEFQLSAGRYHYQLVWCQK
T4 sequence (Q42656 16-378): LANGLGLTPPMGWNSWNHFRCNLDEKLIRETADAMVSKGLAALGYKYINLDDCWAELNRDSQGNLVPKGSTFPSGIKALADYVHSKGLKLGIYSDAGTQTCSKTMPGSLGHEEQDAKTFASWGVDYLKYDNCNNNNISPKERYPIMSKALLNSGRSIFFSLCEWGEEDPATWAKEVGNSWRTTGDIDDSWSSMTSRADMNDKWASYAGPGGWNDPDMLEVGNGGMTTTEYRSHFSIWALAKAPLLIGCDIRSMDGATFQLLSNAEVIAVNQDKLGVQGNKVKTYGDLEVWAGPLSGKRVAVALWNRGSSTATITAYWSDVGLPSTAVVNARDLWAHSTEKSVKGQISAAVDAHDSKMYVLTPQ

## OC[C@@H]1[C@@H](O)[C@H](O)[C@@H](O)CN1C(=S)Nc1ccccc1 [Compound 12, 1-Deoxy-N-(N′-phenylthiocarbamoyl)nojirimicin]
Isomaltase (α-Glcase2); [7]
  Ki: 18 ± 2 µM
Isomaltase (α-Glcase2); [8]
  Ki: 10 ± 1 µM
[1]
  Ki: 23 ± 3 µM
[2]
  Ki: 294 ± 18 µM
[3]
  Ki β-Galase: n.i.
[4]
  Ki: 122 ± 9 µM
[5]
  Ki: 18 ± 2 µM
[6]; Ki α-Glcase1, mean ± SD
  Ki: 60 ± 4 µM

## CCCCN=C1SCC2C(O)C(O)C(O)CN12 [Compound 8, 5-N,6-S-(N′-Butyliminomethylidene)-6-thio-1-deoxy-L-idonojirimycin]
Isomaltase (α-Glcase2); [9]
  Ki α-Glcase2: n.i.
[1]
  Ki: 19 ± 9 µM
[2]
  Ki α-Manase: n.i.
[3]
  Ki β-Galase: n.i.
[4]
  Ki α-Galase: n.i.
[5]
  Ki α-Glcase3: n.i.
[6]; mean ± SD
  Ki α-Glcase1: n.i.

## CCCCCCCCNC(=S)N1C[C@H](O)[C@@H](O)[C@H](O)[C@@H]1CO [Compound 13, N-(N′-Octylthiocarbamoyl)-1-deoxy-L-idonojirimycin]
Isomaltase (α-Glcase2); [9]
  Ki α-Glcase2: n.i.
[1]
  Ki: 227 ± 13 µM
[2]
  Ki α-Manase: n.i.
[3]
  Ki β-Galase: n.i.
[4]
  Ki: 60 ± 15 µM
[5]
  Ki α-Glcase3: n.i.
[6]; mean ± SD
  Ki α-Glcase1: n.i.

## CCCCNC(=S)N1C[C@H](O)[C@@H](O)[C@H](O)[C@@H]1CO [Compound 14, N-(N′-Butylthiocarbamoyl)-1-deoxy-L-idonojirimycin]
Isomaltase (α-Glcase2); [9]
  Ki α-Glcase2: n.i.
[1]
  Ki: 51 ± 13 µM
[2]
  Ki α-Manase: n.i.
[3]
  Ki β-Galase: n.i.
[4]
  Ki α-Galase: n.i.
[5]
  Ki α-Glcase3: n.i.
[6]; mean ± SD
  Ki α-Glcase1: n.i.

## CCCCCCCCN=C1SCC2C(O)C(O)C(O)CN12 [Compound 7, 5-N,6-S-(N′-Octyliminomethylidene)-6-thio-1-deoxy-L-idonojirimycin]
Isomaltase (α-Glcase2); [9]
  Ki α-Glcase2: n.i.
[1]
  Ki: 3.9 ± 0.3 µM
[2]
  Ki α-Manase: n.i.
[3]
  Ki β-Galase: n.i.
[4]
  Ki: 504 ± 32 µM
[5]
  Ki α-Glcase3: n.i.
[6]; mean ± SD
  Ki α-Glcase1: n.i.

## OC1CN2C(=Nc3ccccc3)SCC2C(O)C1O (stereo not drawn) [Compound 6, 1-Deoxy-6-thio-5-N,6-S-(N′-phenyliminomethylidene)nojirimycin]
Isomaltase (α-Glcase2); [7]
  Ki: 44 ± 3 µM
Isomaltase (α-Glcase2); [9]
  Ki α-Glcase2: n.i.
[1]
  Ki: 48 ± 4 µM
[2]
  Ki α-Manase: n.i.
[3]
  Ki β-Galase: n.i.
[4]
  Ki α-Galase: n.i.
[5]
  Ki: 44 ± 3 µM
[6]; Ki α-Glcase1, mean ± SD
  Ki: 406 ± 20 µM

## OC1CN2C(=Nc3ccccc3)SCC2C(O)C1O [Compound 9, 5-N,6-S-(N′-Phenyliminomethylidene)-6-thio-1-deoxy-L-idonojirimycin]
Isomaltase (α-Glcase2); [9]
  Ki α-Glcase2: n.i.
[1]
  Ki: 309 ± 19 µM
[2]
  Ki α-Manase: n.i.
[3]
  Ki β-Galase: n.i.
[4]
  Ki: 772 ± 35 µM
[5]
  Ki α-Glcase3: n.i.
[6]; Ki α-Glcase1, mean ± SD
  Ki: 262 ± 15 µM

## OC[C@H]1[C@@H](O)[C@H](O)[C@@H](O)CN1C(=S)Nc1ccccc1 [Compound 15, N-(N′-Phenylthiocarbamoyl)-1-deoxy-L-idonojirimycin]
Isomaltase (α-Glcase2); [8]
  Ki: 443 ± 22 µM
[1]
  Ki: 294 ± 18 µM
[2]
  Ki α-Manase: n.i.
[3]
  Ki β-Galase: n.i.
[4]
  Ki: 77 ± 16 µM
[5]
  Ki: 271 ± 17 µM
[6]; Ki α-Glcase1, mean ± SD
  Ki: 293 ± 18 µM

## CCCCCCCCNC(=S)N1C[C@H](O)[C@@H](O)[C@H](O)[C@H]1CO [Compound 10, 1-Deoxy-N-(N′-octylthiocarbamoyl)nojirimicin]
Isomaltase (α-Glcase2); [8]
  Ki: 116 ± 8 µM
[1]
  Ki: 1.3 ± 0.1 µM
[2]
  Ki α-Manase: n.i.
[3]
  Ki β-Galase: n.i.
[4]
  Ki α-Galase: n.i.
[5]
  Ki: 129 ± 10 µM
[6]; Ki α-Glcase1, mean ± SD
  Ki: 481 ± 27 µM

## CCCCNC(=S)N1C[C@H](O)[C@@H](O)[C@H](O)[C@H]1CO [Compound 11, 1-Deoxy-N-(N′-butylthiocarbamoyl)nojirimicin]
Isomaltase (α-Glcase2); [8]
  Ki: 121 ± 9 µM
[1]
  Ki: 20 ± 2 µM
[2]
  Ki α-Manase: n.i.
[3]
  Ki β-Galase: n.i.
[4]
  Ki: 847 ± 42 µM
[5]
  Ki: 213 ± 18 µM
[6]; mean ± SD, read-out: Ki α-Glcase1
  Ki: 568 ± 30 µM

## CCCCN=C1SCC2C(O)C(O)C(O)CN12 (stereo not drawn) [Compound 5, 1-Deoxy-6-thio-5-N,6-S-(N′-butyliminomethylidene)nojirimycin]
Isomaltase (α-Glcase2); [9]
  Ki α-Glcase2: n.i.
[1]
  Ki: 1.1 ± 0.1 µM
[2]
  Ki α-Manase: n.i.
[3]
  Ki β-Galase: n.i.
[4]
  Ki α-Galase: n.i.
[5]
  Ki α-Glcase3: n.i.
[6]; mean ± SD
  Ki α-Glcase1: n.i.
